Measurements: PubChem BioAssay AID248 (DTP/NCI, 2004)
Values joined by “and” are separate entries in the source; they are usually repeats but may differ in a detail not shown here. Identical values can stand only once. Toxic doses and inconclusive results are not listed. Cut-off read from the data, not from the text of the source: active = T/C of 150% or more; inactive = T/C below 125%.

Tested on: L1210 leukemia ip in BDF1 mice, survival T/C
Assay: NCI In Vivo Anticancer Drug Screen. Data for tumor model L1210 Leukemia (intraperitoneal) in B6D2F1 (BDF1) mice
Settings: endpoint: mean survival time, higher = longer survival
Procedure, shortened: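 Each compound was tested against a transplantable tumor grown in mice. The endpoint was survival, with treated animals benchmarked against vehicle controls as a simple ratio.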

[1] = dose: 25.0 mg/kg/injection, schedule: Q04DX003 (ip), vehicle: saline with Tween-80
[2] = dose: 50.0 mg/kg/injection, schedule: Q04DX003 (ip), vehicle: saline with Tween-80
[3] = dose: 100.0 mg/kg/injection, schedule: Q01DX009 (ip), vehicle: saline with Tween-80
[4] = dose: 100.0 mg/kg/injection, schedule: Q04DX003 (ip), vehicle: saline with Tween-80
[5] = dose: 200.0 mg/kg/injection, schedule: Q01DX009 (ip), vehicle: saline with Tween-80
[6] = dose: 200.0 mg/kg/injection, schedule: Q04DX003 (ip), vehicle: saline with Tween-80
[7] = dose: 400.0 mg/kg/injection, schedule: Q01DX009 (ip), vehicle: saline with Tween-80
[8] = dose: 400.0 mg/kg/injection, schedule: Q04DX003 (ip), vehicle: saline with Tween-80
[9] = dose: 200.0 mg/kg/injection, schedule: Q01DX009 (ip), vehicle: saline
[10] = dose: 400.0 mg/kg/injection, schedule: Q01DX009 (ip), vehicle: saline
[11] = dose: 100.0 mg/kg/injection, schedule: Q04DX002 (ip), vehicle: saline with Tween-80
[12] = dose: 200.0 mg/kg/injection, schedule: Q04DX002 (ip), vehicle: saline with Tween-80
[13] = dose: 400.0 mg/kg/injection, schedule: Q04DX002 (ip), vehicle: saline with Tween-80
[14] = dose: 100.0 mg/kg/injection, schedule: Q04DX003 (ip), vehicle: saline
[15] = dose: 200.0 mg/kg/injection, schedule: Q04DX003 (ip), vehicle: saline
[16] = dose: 400.0 mg/kg/injection, schedule: Q04DX003 (ip), vehicle: saline
[17] = dose: 100.0 mg/kg/injection, schedule: Q04DX003 (ip), vehicle: Klucel (hydroxypropylcellulose) (HPC)
[18] = dose: 200.0 mg/kg/injection, schedule: Q04DX003 (ip), vehicle: Klucel (hydroxypropylcellulose) (HPC)
[19] = dose: 400.0 mg/kg/injection, schedule: Q04DX003 (ip), vehicle: Klucel (hydroxypropylcellulose) (HPC)
[20] = dose: 50.0 mg/kg/injection, schedule: Q04DX002 (ip), vehicle: saline with Tween-80
[21] = dose: 100.0 mg/kg/injection, schedule: Q01DX001 (ip), vehicle: saline
[22] = dose: 200.0 mg/kg/injection, schedule: Q01DX001 (ip), vehicle: saline
[23] = dose: 400.0 mg/kg/injection, schedule: Q01DX001 (ip), vehicle: saline

Measured: T/C

CCc1ccc2c(c1)N(CCCN(CCCl)CCCl)c1ccccc1S2
inactive: dose: 1.56 mg/kg/injection, schedule: Q01DX009 (ip), vehicle: saline with Tween-80 107 % of control | dose: 3.12 mg/kg/injection, schedule: Q01DX001 (ip), vehicle: saline with Tween-80 97 % of control | dose: 3.12 mg/kg/injection, schedule: Q01DX009 (ip), vehicle: saline with Tween-80 102 % of control | dose: 6.25 mg/kg/injection, schedule: Q01DX001 (ip), vehicle: saline with Tween-80 97 % of control | dose: 6.25 mg/kg/injection, schedule: Q01DX009 (ip), vehicle: saline with Tween-80 100 % of control | dose: 6.25 mg/kg/injection, schedule: Q04DX003 (ip), vehicle: saline with Tween-80 110 % of control | dose: 12.5 mg/kg/injection, schedule: Q01DX001 (ip), vehicle: saline with Tween-80 111 % of control | dose: 12.5 mg/kg/injection, schedule: Q01DX009 (ip), vehicle: saline with Tween-80 102 % of control | dose: 12.5 mg/kg/injection, schedule: Q04DX003 (ip), vehicle: saline with Tween-80 111 % of control | [1] 111 % of control | [2] 111 % of control

Cc1ccccc1C(c1ccccc1C)c1ccccc1C(=O)O
inactive: [3] 103 % of control | [4] 105 % of control | [5] 100 % of control | [6] 93 % of control | [7] 97 % of control | [8] 98 % of control

CC1CCC2(C)CCC3(C)C4=CCC5C(C)(C)C(O)CCC5(C)C4CCC3(C)C2C1C (stereo not drawn)
inactive: [9] 87 % of control | [10] 96 % of control

CC(=O)Nc1ccc(NC(=O)Nc2cc(C)ccc2C)cc1
inactive: [1] 91 % of control | [2] 89 % of control | dose: 100.0 mg/kg/injection, schedule: Q01DX001 (ip), vehicle: saline with Tween-80 91 % of control | [3] 92 % of control and 86 % of control | [11] 90 % of control and 91 % of control | [4] 91 % of control | dose: 200.0 mg/kg/injection, schedule: Q01DX001 (ip), vehicle: saline with Tween-80 89 % of control | [5] 99 % of control and 91 % of control | [12] 87 % of control and 90 % of control | dose: 400.0 mg/kg/injection, schedule: Q01DX001 (ip), vehicle: saline with Tween-80 89 % of control | [7] 92 % of control and 100 % of control | [13] 89 % of control and 91 % of control | [8] 87 % of control

O=[N+]([O-])c1cccnc1Oc1cccc(C(F)(F)F)c1
inactive: [14] 100 % of control | [15] 105 % of control | [16] 104 % of control

Cc1cc(C)c(-c2c(Br)c(OC(=O)c3ccc([N+](=O)[O-])cc3)c(-c3c(C)cc(C)c(Br)c3C)c(Br)c2OC(=O)c2ccc([N+](=O)[O-])cc2)c(C)c1Br
inactive: dose: 100.0 mg/kg/injection, schedule: Q01DX009 (ip), vehicle: Klucel (hydroxypropylcellulose) (HPC) 101 % of control | [17] 104 % of control | dose: 200.0 mg/kg/injection, schedule: Q01DX009 (ip), vehicle: Klucel (hydroxypropylcellulose) (HPC) 97 % of control | [18] 96 % of control | dose: 400.0 mg/kg/injection, schedule: Q01DX009 (ip), vehicle: Klucel (hydroxypropylcellulose) (HPC) 100 % of control | [19] 96 % of control

OC(c1ccccc1)(c1ccccc1)c1nc2ccccc2[nH]1
inactive: dose: 75.0 mg/kg/injection, schedule: Q01DX009 (ip), vehicle: Klucel (hydroxypropylcellulose) (HPC) 97 % of control | dose: 150.0 mg/kg/injection, schedule: Q01DX009 (ip), vehicle: Klucel (hydroxypropylcellulose) (HPC) 87 % of control | dose: 300.0 mg/kg/injection, schedule: Q01DX009 (ip), vehicle: Klucel (hydroxypropylcellulose) (HPC) 104 % of control

N#C/C(=C\C=C\C1CCCCC1)C1CCC([N+](=O)[O-])CC1 (stereo not drawn)
inactive: [11] 105 % of control | [12] 94 % of control | [13] 91 % of control

CCCCCCC(C(C(C)=O)C(C)=O)C(C(C)=O)C(C)=O
inactive: [4] 91 % of control | [6] 93 % of control

CCCCCCCCC1NC1CCCCCCCC (stereo not drawn)
inactive: dose: 25.0 mg/kg/injection, schedule: Q04DX002 (ip), vehicle: saline with Tween-80 98 % of control | [20] 88 % of control | dose: 100.0 mg/kg/injection, schedule: Q04DX002 (ip), vehicle: other 100 % of control | [11] 100 % of control | dose: 200.0 mg/kg/injection, schedule: Q04DX002 (ip), vehicle: other 96 % of control

CN(C)c1ccc(/C=N/NC(=O)C(O)C(O)C(O)C(O)CO)c(Cl)c1 (stereo not drawn)
inactive: [11] 98 % of control | [12] 91 % of control | [13] 88 % of control

C1CSC2(CCC(C3CCC4(CC3)SCCS4)CC2)S1 (stereo not drawn)
inactive: dose: 75.0 mg/kg/injection, schedule: Q01DX009 (ip), vehicle: saline 92 % of control | [21] 88 % of control | dose: 150.0 mg/kg/injection, schedule: Q01DX009 (ip), vehicle: saline 97 % of control | [22] 91 % of control | dose: 300.0 mg/kg/injection, schedule: Q01DX009 (ip), vehicle: saline 87 % of control | [23] 93 % of control

ClCCOCCOc1ccccc1OCCOCCCl
inactive: [20] 100 % of control | [11] 90 % of control

O=C(O)c1ccccc1C(=O)Nc1ccc([N+](=O)[O-])cc1
inactive: [1] 93 % of control | [2] 90 % of control | [4] 98 % of control

CCCCCCCCCCCC(=O)Nc1ccccc1C(F)(F)F
inactive: dose: 100.0 mg/kg/injection, schedule: Q01DX009 (ip), vehicle: acetone 96 % of control | dose: 200.0 mg/kg/injection, schedule: Q01DX009 (ip), vehicle: acetone 95 % of control | dose: 400.0 mg/kg/injection, schedule: Q01DX009 (ip), vehicle: acetone 94 % of control

CCOC(=O)c1cnc(SC)nc1NC
inactive: [17] 97 % of control | [18] 99 % of control | [19] 111 % of control

CCCC(=O)NO
inactive: [21] 97 % of control | dose: 100.0 mg/kg/injection, schedule: Q01DX009 (ip), vehicle: saline 102 % of control | [14] 109 % of control and 105 % of control | [22] 114 % of control | [9] 104 % of control | [15] 111 % of control and 96 % of control | [23] 108 % of control | [10] 114 % of control | [16] 112 % of control and 100 % of control
